Experiment: xn = mol fraction of the nth substance listed
Details: Liquid

CCOS(=O)(=O)[O-].CCn1cc[n+](C)c1 [1-ethyl-3-methylimidazolium ethyl sulfate] + CO
mass density [kg/m3]
Details	100 kPa	2500 kPa	5000 kPa	10000 kPa	15000 kPa	20000 kPa	25000 kPa	30000 kPa	35000 kPa
303.15 K, x1 = 0.04781	–	–	–	–	–	892.79	896.28	899.65	902.86
303.15 K, x1 = 0.1026	–	–	–	–	–	965.4	968.54	971.57	974.42
303.15 K, x1 = 0.1977	–	–	–	–	–	1047.97	1050.68	1053.34	1055.86
303.15 K, x1 = 0.2432	–	–	–	–	–	1076.28	1078.9	1081.44	1083.87
303.15 K, x1 = 0.3026	–	–	–	–	–	1106.82	1109.29	1111.72	1114.04
303.15 K, x1 = 0.3887	–	–	–	–	1137.67	1140.05	1142.39	1144.7	1146.89
303.15 K, x1 = 0.485	–	–	–	–	1165.38	1167.67	1169.9	1172.11	1174.2
303.15 K, x1 = 0.589	–	–	–	–	1187.91	1190.1	1192.25	1194.38	1196.4
303.15 K, x1 = 0.7289	–	–	–	–	1210.81	1212.92	1214.99	1217.04	1219
303.15 K, x1 = 0.8521	–	–	–	–	1225.51	1227.56	1229.58	1231.59	1233.49
303.15 K, x1 = 0.9397	–	–	–	–	1234.67	1236.7	1238.71	1240.68	1242.56
313.15 K, x1 = 0.04781	868.71	870.87	873	877.12	881.03	884.83	888.46	891.58	896.52
313.15 K, x1 = 0.1026	943.67	945.44	947.28	950.87	954.31	957.65	960.89	964.01	967.07
313.15 K, x1 = 0.1977	1028.79	1030.21	1031.77	1034.78	1037.72	1040.6	1043.41	1046.12	1048.8
313.15 K, x1 = 0.2432	1057.64	1059.08	1060.59	1063.49	1066.28	1069.03	1071.73	1074.34	1076.92
313.15 K, x1 = 0.3026	1088.94	1090.22	1091.62	1094.33	1097	1099.6	1102.15	1104.62	1107.08
313.15 K, x1 = 0.3887	1122.96	1124.22	1125.52	1128.06	1130.57	1133.05	1135.46	1137.8	1140.13
313.15 K, x1 = 0.485	1151.19	1152.35	1153.6	1156.03	1158.42	1160.76	1163.07	1165.3	1167.55
313.15 K, x1 = 0.589	1174.15	1175.21	1176.41	1178.75	1181.04	1183.3	1185.51	1187.68	1189.83
313.15 K, x1 = 0.7289	1197.48	1198.52	1199.65	1201.89	1204.09	1206.26	1208.39	1210.48	1212.56
313.15 K, x1 = 0.8521	1212.41	1213.23	1214.31	1216.48	1218.62	1220.72	1222.81	1224.83	1226.88
313.15 K, x1 = 0.9397	1221.68	1222.7	1223.82	1225.96	1228.06	1230.16	1232.21	1234.23	1236.23
323.15 K, x1 = 0.04781	859.88	862.14	864.43	–	–	–	–	–	–
323.15 K, x1 = 0.1026	935.3	937.17	939.08	–	–	–	–	–	–
323.15 K, x1 = 0.1977	1020.88	1022.39	–	–	–	–	–	–	–
323.15 K, x1 = 0.2432	1049.97	1051.46	–	–	–	–	–	–	–
323.15 K, x1 = 0.3026	1081.45	1082.65	–	–	–	–	–	–	–
323.15 K, x1 = 0.3887	1115.61	1116.83	–	–	–	–	–	–	–
323.15 K, x1 = 0.485	1143.95	1145.15	–	–	–	–	–	–	–
323.15 K, x1 = 0.589	1167	1168.12	–	–	–	–	–	–	–
323.15 K, x1 = 0.7289	1190.46	1191.53	–	–	–	–	–	–	–
323.15 K, x1 = 0.8521	1205.38	1206.3	–	–	–	–	–	–	–
323.15 K, x1 = 0.9397	1214.87	1215.9	–	–	–	–	–	–	–

— the NIST ThermoML archive (doi:10.1016/j.jct.2007.11.011)
